The record followed here is PubChem BioAssay (NCI).

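A five-concentration, 48-hour dose response in 96-well plates underlies each endpoint, interpolated linearly between surrounding concentrations. The concentration for 50% growth inhibition is given as GI50. TGI marks complete inhibition of growth.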

Among the test systems are OVCAR-4 ovarian; NCI-H460 lung; SR leukemia; UACC-257 melanoma; HCT-15 colon; NCI-H522 lung; BT-549 breast; M14 melanoma; SF-295 CNS; TK-10 renal.
Common to all, as to assay: NCI tumour cell line growth inhibition, 48 h

In the case of `O=C(Nc1cccc(-n2cc(-c3ccncc3)c(-c3cc(O)cc(Cl)c3)n2)c1)c1ccc(N2CCOCC2)c(C(F)(F)F)c1`, the GI50 with OVCAR-4 ovarian is above 100000 nM; in the assay with NCI-H460 lung it was 797 nM; in the assay on SR leukemia, 338 nM; in the assay on UACC-257 melanoma it was 2360 nM; in the assay with HCT-15 colon, 559 nM; in the assay with NCI-H522 lung it was 934 nM. In addition, the GI50 with BT-549 breast was 4210 nM; in the assay on M14 melanoma, 774 nM; in the assay on SF-295 CNS it was 614 nM. For the same compound, the TGI in the assay on OVCAR-4 ovarian was above 100000 nM; with NCI-H460 lung, 3480 nM; with SR leukemia, 1830 nM; in the assay on UACC-257 melanoma, 8480 nM; in the assay with HCT-15 colon, 11300 nM; in the assay on NCI-H522 lung it was 12100 nM. Also, the TGI in the assay on BT-549 breast was above 100000 nM; with M14 melanoma it was 2740 nM; in the assay with SF-295 CNS, 2780 nM.

Regarding `C[C@]12CC[C@H]3[C@@H](CCC4=CC(=O)CC[C@@]43C)[C@@H]1CC[C@@H]2c1csc(N)n1`, the GI50 is 2980 nM with OVCAR-4 ovarian; 3460 nM in the assay on NCI-H460 lung; 2120 nM with SR leukemia; 2750 nM in the assay with UACC-257 melanoma; 4200 nM in the assay on HCT-15 colon; 7180 nM in the assay with NCI-H522 lung. For the same compound, the GI50 was 6120 nM in the assay on BT-549 breast, 11300 nM in the assay with TK-10 renal, 5160 nM in the assay with M14 melanoma and 1270 nM in the assay with SF-295 CNS. The TGI was 27200 nM with OVCAR-4 ovarian; 13800 nM in the assay with NCI-H460 lung; 12600 nM in the assay with SR leukemia; 13000 nM in the assay with UACC-257 melanoma; 19100 nM with HCT-15 colon; 24900 nM in the assay with NCI-H522 lung. The TGI was 21300 nM in the assay on BT-549 breast, 43000 nM in the assay with TK-10 renal, 21400 nM with M14 melanoma and 4200 nM with SF-295 CNS.

For the compound `CCN=c1sc2c(n1NC(=O)c1cc3ccc1CCc1ccc(cc1)CC3)C(=O)c1ccccc1C2=O`, the GI50 was 469 nM with OVCAR-4 ovarian; 1310 nM in the assay with NCI-H460 lung; 815 nM in the assay on SR leukemia; 551 nM in the assay with UACC-257 melanoma; 569 nM with HCT-15 colon; 540 nM in the assay on NCI-H522 lung. Besides, the GI50 in the assay on BT-549 breast was 511 nM; in the assay with TK-10 renal it was 9540 nM; in the assay on M14 melanoma, 577 nM; in the assay on SF-295 CNS, 951 nM. The TGI in the assay on OVCAR-4 ovarian was determined as 906 nM; in the assay on NCI-H460 lung it was 4860 nM; in the assay with SR leukemia, 9910 nM; in the assay with UACC-257 melanoma, 1070 nM; in the assay on HCT-15 colon it was 1210 nM; with NCI-H522 lung, 1310 nM. In addition, the TGI in the assay with BT-549 breast stood at 974 nM; with TK-10 renal it was 16500 nM; in the assay on M14 melanoma, 1110 nM; in the assay with SF-295 CNS, 2640 nM.

With `COc1ccc(OC)c(NCC(=O)n2nc(/C=C\c3ccc(O)c(OC)c3)cc2/C=C\c2ccc(O)c(OC)c2)c1`, the GI50 was 3430 nM in the assay on OVCAR-4 ovarian; 2590 nM in the assay with NCI-H460 lung; 3280 nM with UACC-257 melanoma; 2090 nM in the assay on HCT-15 colon; 1310 nM with NCI-H522 lung; 1440 nM in the assay on BT-549 breast. Moreover, the GI50 was 4660 nM in the assay with TK-10 renal, 2020 nM in the assay on M14 melanoma and 2440 nM with SF-295 CNS. The TGI stood at 22700 nM in the assay on OVCAR-4 ovarian; 9840 nM in the assay with NCI-H460 lung; 14800 nM in the assay with UACC-257 melanoma; 11800 nM in the assay with HCT-15 colon; 3280 nM in the assay with NCI-H522 lung; 5700 nM with BT-549 breast. Besides, the TGI in the assay on TK-10 renal came out at 30100 nM; in the assay with M14 melanoma, 6180 nM; in the assay on SF-295 CNS, 6080 nM.

In the case of `CN[C@@H](C)C(=O)N[C@H]1CN(S(=O)(=O)c2cccc(S(=O)(=O)N3CC[C@H]4CC[C@@H](C(=O)NC(c5ccccc5)c5ccccc5)N4C(=O)[C@@H](NC(=O)[C@H](C)NC)C3)c2)CC[C@H]2CC[C@@H](C(=O)NC(c3ccccc3)c3ccccc3)N2C1=O`, the GI50 with OVCAR-4 ovarian was 18.7 nM; in the assay on NCI-H460 lung it was 20200 nM; with SR leukemia, 1950 nM; in the assay with UACC-257 melanoma it was 18000 nM; with HCT-15 colon, above 93600 nM; with NCI-H522 lung, 2430 nM. Further, the GI50 was below 10 nM in the assay on BT-549 breast, 55900 nM in the assay on TK-10 renal, 34300 nM with M14 melanoma and 14400 nM in the assay on SF-295 CNS. The TGI in the assay on OVCAR-4 ovarian was 128 nM; with NCI-H460 lung, 46300 nM; in the assay on SR leukemia, above 100000 nM; in the assay on UACC-257 melanoma it was 50200 nM; in the assay with HCT-15 colon, above 100000 nM; in the assay with NCI-H522 lung, 34800 nM. For the same compound, the TGI with BT-549 breast was below 19.7 nM; with TK-10 renal, above 100000 nM; in the assay with M14 melanoma, above 100000 nM; with SF-295 CNS it was above 71400 nM.

As for `COCC([C@@H](O)C(O)C(=O)NCC[C@@H](C)c1nc(/C=C/CC2OC3(C[C@H](O)C2C)OC(C(C[C@H](O)C(C)[C@H](O)C(C)/C=C(C)/C(C)=C/C=C/C(C)=C/C#N)OC)[C@@H](OP(=O)(O)O)C3(C)C)co1)N(C)C` (some centres not stated), the TGI worked out at 2.74 nM in the assay with OVCAR-4 ovarian; 0.272 nM in the assay on NCI-H460 lung; 2.32 nM with UACC-257 melanoma; 0.462 nM in the assay on HCT-15 colon; 0.308 nM in the assay on NCI-H522 lung; 0.312 nM with BT-549 breast. For the same compound, the TGI in the assay on TK-10 renal was determined as 0.24 nM; in the assay on M14 melanoma, 0.323 nM; in the assay on SF-295 CNS, 0.328 nM.

For the compound `CNCc1cccc2c1OCCOCCOCCN(C)S(=O)(=O)c1ccc(cc1)-c1cnc(N)c(n1)C(=O)N2`, the GI50 in the assay with NCI-H460 lung is 868 nM; in the assay on SR leukemia, 248 nM; with UACC-257 melanoma, 2690 nM; in the assay on HCT-15 colon it was 1770 nM; with NCI-H522 lung, 1760 nM; in the assay on BT-549 breast, 3270 nM. In addition, the figures for the GI50 in the assay with TK-10 renal, with M14 melanoma and in the assay with SF-295 CNS were 2060 nM, 1110 nM and 3350 nM, respectively. For the same compound, the TGI amounted to 2950 nM with NCI-H460 lung; 2970 nM with SR leukemia; 5640 nM with UACC-257 melanoma; 7780 nM in the assay with HCT-15 colon; 4940 nM in the assay with NCI-H522 lung; 21600 nM in the assay on BT-549 breast. Also, the TGI came to 20800 nM with TK-10 renal, 3400 nM in the assay on M14 melanoma and 13300 nM in the assay with SF-295 CNS.

Take `CCCCCCCCCCCC[N+]1(CCCCCCCCCCCC)CCCC(C)C1` (configuration not stated): in the assay with BT-549 breast, the GI50 was 817 nM and the TGI was 3250 nM. For the same compound, in the assay on SF-295 CNS, the GI50 is 259 nM and the TGI came out at 1290 nM.
